Counter-ions that a name gives are not always drawn.
Key:
[1] = cited from earlier work; for activity taught in U.S. Pat. Nos. 4,871,865 and 4,923,892: Burroughs Wellcome Patents
[2] = test system: IL-6 secretion in human conjunctival epithelial cells; assay: Inhibition of histamine-stimulated IL-6 secretion from cultured human conjunctival epithelial cells (ELISA); type: cell-based; details: for potency in intact cells / inhibition of secretion compared with receptor binding: IL-6 and IL-8 secretion
Source text: Methods detailing the preparation of primary epithelial cell cultures and cytokine release studies using these cells have been described. […] Briefly, cultures of human conjunctival epithelial cells were initiated from donor tissues obtained within eight hours post mortem by various eye banks. The tissues were enzymatically digested overnight. Epithelial cells were gently scraped from the tissue surface, dissociated into a single cell suspension, and cultured in keratinocyte growth medium (Clonetics®, San Diego, Calif.). Cells were used only through passage 6. Cultures were maintained in a preconfluent state to prevent differentiation.
Several compounds with histamine H1 antagonist activity were evaluated for their ability to inhibit secretion of cytokines (IL-6 and IL-8) from cultured human conjunctival epithelial cells in response to histamine stimulation. Cells were plated at 2×10^4 cells/well and cultured overnight at 5% CO2 /37° C. The following day, fresh medium containing test compound was added directly to wells and the cells were incubated for 30 minutes prior to 24-hour stimulation with histamine (30 μM). Three separate culture wells were used for each treatment group. At harvest, supernatants were collected, centrifuged at 200× g, and stored at -20° C. Samples were analyzed for IL-6 and IL-8 by ELISA (R&D Systems, Minneapolis, Minn.) as directed by the manufacturer. The sensitivities of each ELISA are as follows: IL-6 0.7 pg/ml and IL-8 3.0 pg/ml.
Data derived from the cytokine assays were calculated as mean and standard error (SEM) values which represent the variability among identically treated culture wells. The dose-dependent effect of pharmacological agents and IC50 's were determined by linear regression. Data are expressed as mean ±S.E.M. from 3-5 independent experiments.

[3] = test system: IL-8 secretion in human conjunctival epithelial cells; assay: Inhibition of histamine-stimulated IL-8 secretion from cultured human conjunctival epithelial cells (ELISA); type: cell-based; details: Epithelial cell, 24 h, read-out: increase of IL-8 secretion above basal levels
Source text: Methods detailing the preparation of primary epithelial cell cultures and cytokine release studies using these cells have been described. See Gamache, et al., "Secretion of proinflammatory cytokines by human conjunctival epithelial cells," Ocul Immunol Inflamm., 5:117-128 (1997). Briefly, cultures of human conjunctival epithelial cells were initiated from donor tissues obtained within eight hours post mortem by various eye banks. The tissues were enzymatically digested overnight. Epithelial cells were gently scraped from the tissue surface, dissociated into a single cell suspension, and cultured in keratinocyte growth medium (Clonetics®, San Diego, Calif.). Cells were used only through passage 6. Cultures were maintained in a preconfluent state to prevent differentiation. Cells were identified as epithelial by positive keratin staining.
Several compounds with histamine H1 antagonist activity were evaluated for their ability to inhibit secretion of cytokines (IL-6 and IL-8) from cultured human conjunctival epithelial cells in response to histamine stimulation. Cells were plated at 2×10^4 cells/well and cultured overnight at 5% CO2 /37° C. […] Samples were analyzed for IL-6 and IL-8 by ELISA (R&D Systems, Minneapolis, Minn.) as directed by the manufacturer. […]

[4] = IL-6 and IL-8 secretion versus H1 binding

CN(C)CCC=C1c2ccccc2COc2ccc(/C=C/C(=O)O)cc21 [11-(3-dimethylamino-propylidene)-6,11-dihydrodibenz[b,e]oxepine-2(E)-acrylic acid]
activity taught in U.S. Pat. Nos. 4,871,865 and 4,923,892 [1]: antihistaminic and antiasthmatic activity

CN(C)CCC=C1c2ccccc2COc2ccc(C(=O)O)cc21 [11-(3-dimethylaminopropylidene)-6,11-dihydrodibenz[b,e]oxepine-2-carboxylic acid]
activity taught in U.S. Pat. Nos. 4,871,865 and 4,923,892 [1]: antihistaminic and antiasthmatic activity

c1ccc(CN(CC2=NCCN2)c2ccccc2)cc1 [Antazoline, 4,5-Dihydro-N-phenyl-N-(phenylmethyl)-1H-imidazole-2-methanamine]
less potent inhibitor of IL-6 and IL-8 secretion than predicted from histamine H1-receptor binding affinity [2, 4]: 20-140 fold

CCOCCn1c(N2CCCN(C)CC2)nc2ccccc21 [Emedastine, 1H-Benzimidazole,1-(2-ethoxyethyl)-2-(hexahydro-4-methyl-1H-1,4-diazepin-1-yl),(E)-2-butenedioate (1:2)]
potency in intact cells / inhibition of secretion compared with receptor binding [2]: consistent with its activity determined in receptor binding assays

C[C@@H]1CN([C@H]2CC[C@](C#N)(c3ccc(F)cc3)CC2)CC[C@]1(C(=O)O)c1ccccc1 [Levocabastine, (-)-trans-1-[cis-4-Cyano-4-(p-fluorophenyl)cyclohexyl]-3-methyl-4-phenylisonipecotic acid monohydrochloride]
potency in intact cells / inhibition of secretion compared with receptor binding [2]: at a level consistent with its H1 -receptor binding affinity

CN(C)CC/C=C1/c2ccccc2COc2ccc(CC(=O)O)cc21 [Olopatadine, Z-11-(3-Dimethylaminopropylidene)-6,11-dihydrodibenz[b,e]oxepin-2-acetic acid]
more potent inhibitor of cytokine secretion than predicted from binding data [2, 4]: approximately 10 fold | activity taught in U.S. Pat. No. 5,116,863 ([1]; Kyowa patent, Wistar male rats): anti-allergic and anti-inflammatory activity

CN(C)CCC(c1ccccc1)c1ccccn1 (stereo not shown) [Pheniramine, N,N-Dimethyl-γ-phenyl-2-pyridine-propanamine]
less potent inhibitor of IL-6 and IL-8 secretion than predicted from histamine H1-receptor binding affinity [2, 4]: 20-140 fold

NCCc1c[nH]cn1 [histamine]
fold induction at 30 µM [3]: 1.8 ± 0.28 | fold induction at 30 µM ([2]; Homo sapiens, Epithelial cell, 24 h, read-out: increase of IL-6 secretion above basal levels): 1.59 ± 0.19

Reference: patent US6174914A, “Method of inhibiting cytokine release from human ocular cells” (Alcon Laboratories, Inc., priority 1999, dated 2001)
